Biological target: Beta-secretase 1 (Homo sapiens, UniProt P56817)
Experiment: BACE-1 Inhibiiton Assay
Procedure: Beta-Secretase inhibition evaluations were carried out using a fluorescence resonance energy transfer (FRET) assay kit supplied by PanVera (kit P2985).

Sequence of Beta-secretase 1 (P56817 whole entry): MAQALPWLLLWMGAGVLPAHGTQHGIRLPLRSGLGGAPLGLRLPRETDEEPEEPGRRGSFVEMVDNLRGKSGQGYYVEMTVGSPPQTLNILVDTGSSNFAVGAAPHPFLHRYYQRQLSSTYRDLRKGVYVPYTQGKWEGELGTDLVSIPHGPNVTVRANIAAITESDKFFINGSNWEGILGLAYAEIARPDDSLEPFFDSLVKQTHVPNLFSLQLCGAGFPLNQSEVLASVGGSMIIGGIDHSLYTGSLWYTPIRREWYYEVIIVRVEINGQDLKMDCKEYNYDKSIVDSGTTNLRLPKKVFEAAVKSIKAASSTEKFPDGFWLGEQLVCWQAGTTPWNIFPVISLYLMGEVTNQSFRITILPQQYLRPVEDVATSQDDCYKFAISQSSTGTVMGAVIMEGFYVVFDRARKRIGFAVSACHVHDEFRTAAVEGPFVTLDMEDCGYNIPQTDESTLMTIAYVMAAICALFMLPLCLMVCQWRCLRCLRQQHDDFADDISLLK

## O=C(NCc1ccc2c(c1)OCO2)c1cnc2cc(S(=O)(=O)Nc3cccc(C(F)(F)F)c3)ccc2c1O [B53]
  IC50: 0.31 µM

## COc1ccc(-c2nc(SCC(=O)Nc3nc(-c4ccccc4)cs3)[nH]c(=O)c2C#N)cc1 [B51]
  IC50: 4.76 µM

Source: BindingDB's records for doi:10.1111/j.1747-0285.2012.01367.x (Peking University Health Science Center, 2012)
